These results are taken from US20230159910A1, “DIMETHYLMONOTHIOARSINIC ACID-INDUCED MALIGNANTLY TRANSFORMED CELL LINE OF HUMAN KERATINOCYTES AND USE THEREOF” (SOOCHOW UNIVERSITY, priority 2021, published 2023).

The structures appear in SMILES notation.

Assay type in all cases: cell-based, human
Series [1] deals with HaCaT cells. Nature of the series: Cell migration ability by scratch test. To be noted: persistent exposure to 1.0 μM, 35th passage, vs passage control, P<0.05, FIG. 4. The method, then:
(§1) Two dishes of normal HaCaT cells (cell passage 0) were prepared. One dish of cells was persistently and chronically exposed to and incubated with Dulbecco's modified Eagle's medium (DMEM) with high glucose with 1.0 μM DMMTAv (containing 100 μg/ml streptomycin, 100 U/ml penicillin and 10% fetal bovine serum), and the medium was refreshed every 24 h. When the cells were grown to a confluency reaching 80%, the cells were sub-cultured and expanded up to the 35th passage. The other dish of cells was persistently and chronically exposed to and normally incubated with Dulbecco's modified Eagle's medium (DMEM) with high glucose (containing 100 μg/ml streptomycin, 100 U/ml penicillin and 10% fetal bovine serum), and the medium was refreshed every 24 h. When the cells were grown to a confluency reaching 80%, the cells were normally sub-cultured and expanded up to the 35th passage and used as the passage control group. One monitoring point is set every 7 passages to detect the cell doubling time of the 0th, 1st, 7th, 14th, 21st, 28th, 35th passages in the exposure group and the passage control group.
(§2) By detecting the changes in the matrix metalloproteinase-9 (MMP-9), the cell doubling time, the cell migration ability and cell anchoring independent growth, whether the cell undergoes malignant transformation is determined. […]

In series [2] the test system is HaCaT cells. Nature of the series: Cell anchoring independent growth by soft agar colony forming test. To be noted: persistent exposure to 1.0 μM, 35th passage, FIG. 5. The method, then:
as §1, §2

In series [3] the test system is HaCaT cells. Nature of the series: Cell survival of HaCaT cells by CCK-8 kit (determination of exposure dose). To be noted: HaCaT cells treated 24 h with 0-2 μM, FIG. 1. As to the method:
Determination of appropriate exposure dose: After the HaCaT cells were treated with various concentrations (0-2 μM) of DMMTA^v for 24 h, and the cell survival was detected by the CCK-8 kit. The chronic exposure dose of DMMTA^v is determined to be 1.0 μM.

The test system of series [4] is HaCaT cells. Put plainly: MMP-9 secretion after persistent exposure of sub-cultured HaCaT cells. To be noted: persistent exposure to 1.0 μM; 21st, 28th and 35th passages; P<0.05; FIG. 2. The method, then: as §1, §2
Series [5] has as its system HaCaT cells. Put plainly: Cell doubling time after persistent exposure of sub-cultured HaCaT cells. To be noted: persistent exposure to 1.0 μM; 28th, 35th passage; vs passage control, P<0.05; FIG. 3. As to the method: as §1, §2
In series [6] the test system is HaCaT cells. Put plainly: Malignant transformation of HaCaT cells by long-term exposure. To be noted: long-term exposure to 1.0 μM, subculture to 35th passage. As to the method: as §1, §2

As for `C[As](C)(O)=S` [DMMTA^v, dimethylmonothioarsinic acid], the cell migration ability entry in series [1] is “significantly enhanced”. Also, in series [2], the “colony formation in soft agar” value was “can form obvious colonies in soft agar”. The “colony formation rate compared with the passage control group cells” value in series [2] (soft agar, P<0.05) is “significantly higher”. Also, in series [3], the “dose with the highest cell survival rate (chronic exposure dose)” value is 1.0 µM. For the same compound, in series [4], the “secretion of MMP-9 compared with the passage control group” value is given as “significantly increased”. Further, the cell doubling time entry in series [5] is “significantly reduced”. Further, the “induction of malignant transformation of HaCaT cells” value in series [6] is “can induce HaCaT cells to undergo malignant transformation”.
